# From ChEMBL document CHEMBL3352542, “Synthesis, biological evaluation and molecular modeling study of 2-(1,3,4-thiadiazolyl-thio and 4-methyl-thiazolyl-thio)-quinazolin-4-ones as a new class of DHFR inhibitors” (Bioorg Med Chem Lett, 2014)
# The source made the active and inactive calls. The calls are words filed in the database; no cut-off is given here.
# Experiments:
# UACC-62 = test: Growth inhibition of human UACC62 cells at 10 uM after 48 hrs; type: functional
# NCI-H226 = test: Growth inhibition of human NCI-H226 cells at 10 uM after 48 hrs; type: functional
# SNB-75 = test: Growth inhibition of human SNB75 cells at 10 uM after 48 hrs; type: functional
# RPMI-8226 = test: Growth inhibition of human RPMI8226 cells at 10 uM after 48 hrs; type: functional
# SR = test: Growth inhibition of human SR cells at 10 uM after 48 hrs; type: functional
# OVCAR-3 = test: Growth inhibition of human OVCAR3 cells at 10 uM after 48 hrs; type: functional
# Dihydrofolate reductase = target: T1, Dihydrofolate reductase (Bos taurus, UniProt P00376); test: Inhibition of bovine liver DHFR
# T1 sequence (P00376 whole entry): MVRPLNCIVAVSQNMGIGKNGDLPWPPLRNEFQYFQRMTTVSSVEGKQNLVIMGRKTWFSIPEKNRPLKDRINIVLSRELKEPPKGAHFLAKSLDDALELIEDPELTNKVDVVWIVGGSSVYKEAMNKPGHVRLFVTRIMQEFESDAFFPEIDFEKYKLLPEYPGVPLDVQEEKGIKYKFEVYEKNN
# TK-10 = test: Growth inhibition of human TK10 cells at 10 uM after 48 hrs; type: functional
# SW-620 = test: Growth inhibition of human SW620 cells at 10 uM after 48 hrs; type: functional
# KM12 = test: Growth inhibition of human KM12 cells at 10 uM after 48 hrs; type: functional
# MDA-MB-468 = test: Growth inhibition of human MDA-MB-468 cells at 10 uM after 48 hrs; type: functional
# CCRF-CEM = test: Growth inhibition of human CCRF-CEM cells at 10 uM after 48 hrs; type: functional
# HL-60(TB) = test: Growth inhibition of human HL-60(TB) cells at 10 uM after 48 hrs; type: functional
# BT-549 = test: Growth inhibition of human BT549 cells at 10 uM after 48 hrs; type: functional
# MOLT-4 = test: Growth inhibition of human MOLT4 cells at 10 uM after 48 hrs; type: functional
# NCI/ADR-RES = test: Growth inhibition of human NCI-ADR-RES cells at 10 uM after 48 hrs; type: functional
# Staphylococcus aureus [1] = test: Antimicrobial activity against Staphylococcus aureus assessed as inhibition of visible growth after 24 hrs by disc-diffusion method; type: functional, organism-based
# MCF7 = test: Growth inhibition of human MCF7 cells at 10 uM after 48 hrs; type: functional
# SF-539 = test: Growth inhibition of human SF539 cells at 10 uM after 48 hrs; type: functional
# Staphylococcus aureus [2] = test: Antimicrobial activity against Staphylococcus aureus assessed as inhibition zone at 200 ug/disk after 24 hrs by disc-diffusion method; type: functional; settings: read-out: IZ
# Escherichia coli = test: Antimicrobial activity against Escherichia coli assessed as inhibition zone at 200 ug/disk after 24 hrs by disc-diffusion method; type: functional; settings: read-out: IZ
# A498 = test: Growth inhibition of human A498 cells at 10 uM after 48 hrs; type: functional
# A549 = test: Growth inhibition of human A549 cells at 10 uM after 48 hrs; type: functional
# Malme-3M = test: Growth inhibition of human MALME-3M cells at 10 uM after 48 hrs; type: functional
# U-251 = test: Growth inhibition of human U251 cells at 10 uM after 48 hrs; type: functional
# CAKI-1 = test: Growth inhibition of human CAKI-1 cells at 10 uM after 48 hrs; type: functional
# M14 = test: Growth inhibition of human M14 cells at 10 uM after 48 hrs; type: functional
# 786-0 = test: Growth inhibition of human 786-0 cells at 10 uM after 48 hrs; type: functional
# UO-31 = test: Growth inhibition of human UO31 cells at 10 uM after 48 hrs; type: functional
# SF-268 = test: Growth inhibition of human SF268 cells at 10 uM after 48 hrs; type: functional
# MDA-MB-231 = test: Growth inhibition of human MDA-MB-231 cells at 10 uM after 48 hrs; type: functional
# HT-29 = test: Growth inhibition of human HT-29 cells at 10 uM after 48 hrs; type: functional
# HCT-15 = test: Growth inhibition of human HCT15 cells at 10 uM after 48 hrs; type: functional
# OVCAR-8 = test: Growth inhibition of human OVCAR8 cells at 10 uM after 48 hrs; type: functional
# SNB-19 = test: Growth inhibition of human SNB19 cells at 10 uM after 48 hrs; type: functional
# Bacillus subtilis [3] = test: Antimicrobial activity against Bacillus subtilis assessed as inhibition zone at 200 ug/disk after 24 hrs by disc-diffusion method; type: functional; settings: read-out: IZ
# K562 = test: Growth inhibition of human K562 cells at 10 uM after 48 hrs; type: functional
# NCI-H23 = test: Growth inhibition of human NCI-H23 cells at 10 uM after 48 hrs; type: functional
# NCI-H522 = test: Growth inhibition of human NCI-H522 cells at 10 uM after 48 hrs; type: functional
# SF-295 = test: Growth inhibition of human SF295 cells at 10 uM after 48 hrs; type: functional
# RXF 393 = test: Growth inhibition of human RXF393 cells at 10 uM after 48 hrs; type: functional
# Bacillus subtilis [4] = test: Antimicrobial activity against Bacillus subtilis assessed as inhibition of visible growth after 24 hrs by disc-diffusion method; type: functional, organism-based
# Hs-578T = test: Growth inhibition of human Hs 578T cells at 10 uM after 48 hrs; type: functional
# Pseudomonas aeruginosa = test: Antimicrobial activity against Pseudomonas aeruginosa assessed as inhibition zone at 200 ug/disk after 24 hrs by disc-diffusion method; type: functional; settings: read-out: IZ
# PC-3 = test: Growth inhibition of human PC3 cells at 10 uM after 48 hrs; type: functional
# T47D = test: Growth inhibition of human T47D cells at 10 uM after 48 hrs; type: functional
# OVCAR-5 = test: Growth inhibition of human OVCAR5 cells at 10 uM after 48 hrs; type: functional
# HCC 2998 = test: Growth inhibition of human HCC2998 cells at 10 uM after 48 hrs; type: functional
# UACC-257 = test: Growth inhibition of human UACC257 cells at 10 uM after 48 hrs; type: functional
# OVCAR-4 = test: Growth inhibition of human OVCAR4 cells at 10 uM after 48 hrs; type: functional
# HOP-92 = test: Growth inhibition of human HOP92 cells at 10 uM after 48 hrs; type: functional
# Candida albicans = test: Antimicrobial activity against Candida albicans assessed as inhibition zone at 200 ug/disk after 24 hrs by disc-diffusion method; type: functional; settings: read-out: IZ
# HCT-116 = test: Growth inhibition of human HCT116 cells at 10 uM after 48 hrs; type: functional
# ACHN = test: Growth inhibition of human ACHN cells at 10 uM after 48 hrs; type: functional
# SK-MEL-5 = test: Growth inhibition of human SK-MEL-5 cells at 10 uM after 48 hrs; type: functional
# MDA-MB-435 = test: Growth inhibition of human MDA-MB-435 cells at 10 uM after 48 hrs; type: functional
# SN12C = test: Growth inhibition of human SN12C cells at 10 uM after 48 hrs; type: functional
# COLO 205 = test: Growth inhibition of human COLO205 cells at 10 uM after 48 hrs; type: functional
# NCI-H460 = test: Growth inhibition of human NCI-H460 cells at 10 uM after 48 hrs; type: functional
# LOX IMVI = test: Growth inhibition of human LOXIMVI cells at 10 uM after 48 hrs; type: functional
compound,measurement,setting,value
COc1cc2nc(Sc3sc(N)nc3C)n(Cc3ccccc3)c(=O)c2cc1OC,growth inhibition (GI),UACC-62,inactive
same,growth inhibition (GI),NCI-H226,inactive
same,growth inhibition (GI),SNB-75,inactive
same,growth inhibition (GI),RPMI-8226,inactive
same,growth inhibition (GI),SR,inactive
same,growth inhibition (GI),OVCAR-3,inactive
same,IC50,Dihydrofolate reductase,6 µM
same,growth inhibition (GI),TK-10,inactive
same,growth inhibition (GI),SW-620,inactive
same,growth inhibition (GI),KM12,inactive
same,growth inhibition (GI),MDA-MB-468,inactive
same,growth inhibition (GI),CCRF-CEM,inactive
same,growth inhibition (GI),HL-60(TB),inactive
same,growth inhibition (GI),BT-549,inactive
same,growth inhibition (GI),MOLT-4,inactive
same,growth inhibition (GI),NCI/ADR-RES,inactive
same,Activity,Staphylococcus aureus [1],Active
same,growth inhibition (GI),MCF7,inactive
same,growth inhibition (GI),SF-539,inactive
same,zone of inhibition at 200 µg/disc,Staphylococcus aureus [2],20 mm
same,zone of inhibition at 200 µg/disc,Escherichia coli,8 mm
same,growth inhibition (GI),A498,inactive
same,growth inhibition (GI),A549,inactive
same,growth inhibition (GI),Malme-3M,inactive
same,growth inhibition (GI),U-251,inactive
same,growth inhibition (GI),CAKI-1,inactive
same,growth inhibition (GI),M14,inactive
same,growth inhibition (GI),786-0,inactive
same,growth inhibition (GI),UO-31,inactive
same,growth inhibition (GI),SF-268,inactive
same,growth inhibition (GI),MDA-MB-231,inactive
same,growth inhibition (GI),HT-29,inactive
same,growth inhibition (GI),HCT-15,inactive
same,growth inhibition (GI),OVCAR-8,inactive
same,growth inhibition (GI),SNB-19,inactive
same,zone of inhibition at 200 µg/disc,Bacillus subtilis [3],24 mm
same,growth inhibition (GI),K562,inactive
same,growth inhibition (GI),NCI-H23,inactive
same,growth inhibition (GI),NCI-H522,inactive
same,growth inhibition (GI),SF-295,inactive
same,growth inhibition (GI),RXF 393,inactive
same,Activity,Bacillus subtilis [4],Active
same,growth inhibition (GI),Hs-578T,inactive
same,zone of inhibition at 200 µg/disc,Pseudomonas aeruginosa,8 mm
same,growth inhibition (GI),PC-3,inactive
same,growth inhibition (GI),T47D,inactive
same,growth inhibition (GI),OVCAR-5,inactive
same,growth inhibition (GI),HCC 2998,inactive
same,growth inhibition (GI),UACC-257,inactive
same,growth inhibition (GI),OVCAR-4,inactive
same,growth inhibition (GI),HOP-92,inactive
same,zone of inhibition at 200 µg/disc,Candida albicans,8 mm
same,growth inhibition (GI),HCT-116,inactive
same,growth inhibition (GI),ACHN,inactive
same,growth inhibition (GI),SK-MEL-5,inactive
same,growth inhibition (GI),MDA-MB-435,inactive
same,growth inhibition (GI),SN12C,inactive
same,growth inhibition (GI),COLO 205,inactive
same,growth inhibition (GI),NCI-H460,inactive
same,growth inhibition (GI),LOX IMVI,inactive
Cc1ccc2nc(Sc3sc(N)nc3C)n(-c3ccc(Oc4ccccc4)cc3)c(=O)c2c1,growth inhibition (GI),UACC-62,inactive
same,growth inhibition (GI),NCI-H226,inactive
same,growth inhibition (GI),SNB-75,inactive
same,growth inhibition (GI),RPMI-8226,inactive
same,growth inhibition (GI),SR,inactive
same,growth inhibition (GI),OVCAR-3,inactive
same,IC50,Dihydrofolate reductase,2 µM
same,growth inhibition (GI),TK-10,inactive
same,growth inhibition (GI),SW-620,inactive
same,growth inhibition (GI),KM12,inactive
same,growth inhibition (GI),MDA-MB-468,inactive
same,growth inhibition (GI),CCRF-CEM,inactive
same,growth inhibition (GI),HL-60(TB),inactive
same,growth inhibition (GI),BT-549,inactive
same,growth inhibition (GI),MOLT-4,inactive
same,growth inhibition (GI),NCI/ADR-RES,inactive
same,Activity,Staphylococcus aureus [1],Active
same,growth inhibition (GI),MCF7,inactive
same,growth inhibition (GI),SF-539,inactive
same,zone of inhibition at 200 µg/disc,Staphylococcus aureus [2],26 mm
same,zone of inhibition at 200 µg/disc,Escherichia coli,14 mm
same,growth inhibition (GI),A498,inactive
same,growth inhibition (GI),A549,inactive
same,growth inhibition (GI),Malme-3M,inactive
same,growth inhibition (GI),U-251,inactive
same,growth inhibition (GI),CAKI-1,inactive
same,growth inhibition (GI),M14,inactive
same,growth inhibition (GI),786-0,inactive
same,growth inhibition (GI),UO-31,inactive
same,growth inhibition (GI),SF-268,inactive
same,growth inhibition (GI),MDA-MB-231,inactive
same,growth inhibition (GI),HT-29,inactive
same,growth inhibition (GI),HCT-15,inactive
same,growth inhibition (GI),OVCAR-8,inactive
same,growth inhibition (GI),SNB-19,inactive
same,zone of inhibition at 200 µg/disc,Bacillus subtilis [3],22 mm
same,growth inhibition (GI),K562,inactive
same,growth inhibition (GI),NCI-H23,inactive
same,growth inhibition (GI),NCI-H522,inactive
same,growth inhibition (GI),SF-295,inactive
same,growth inhibition (GI),RXF 393,inactive
same,Activity,Bacillus subtilis [4],Active
same,growth inhibition (GI),Hs-578T,inactive
same,zone of inhibition at 200 µg/disc,Pseudomonas aeruginosa,8 mm
same,growth inhibition (GI),PC-3,inactive
same,growth inhibition (GI),T47D,inactive
same,growth inhibition (GI),OVCAR-5,inactive
same,growth inhibition (GI),HCC 2998,inactive
same,growth inhibition (GI),UACC-257,inactive
same,growth inhibition (GI),OVCAR-4,inactive
same,growth inhibition (GI),HOP-92,inactive
same,zone of inhibition at 200 µg/disc,Candida albicans,8 mm
same,growth inhibition (GI),HCT-116,inactive
same,growth inhibition (GI),ACHN,inactive
same,growth inhibition (GI),SK-MEL-5,inactive
same,growth inhibition (GI),MDA-MB-435,inactive
same,growth inhibition (GI),SN12C,inactive
same,growth inhibition (GI),COLO 205,inactive
same,growth inhibition (GI),NCI-H460,inactive
same,growth inhibition (GI),LOX IMVI,inactive
